Test results reported in patent US9212168B2 (priority 2011, dated 2015).

Tests used:
HCV genotype 1a replicon = HCV genotype 1a replicon assay (NS3 protease activity readout); assay type: cell-based, hepatitis C virus; conditions: Hepatitis C virus, read-out: Genotype 1a, HCV genotype 1a replicon
In short: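 EC50 values came from a 4-parameter robust fit of fluorescence (ex 340, em 509 nm) produced by NS3-specific protease in lysates, assayed with 15 μM FRET substrate for 20 min at 37° C, after 48 or 72 hours of compound exposure (0.5% DMSO) of Huh7.5-derived APC89 genotype 1a replicon cells.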

[1] = tested on: HCV genotype 3a NS5A chimeric replicon; assay: Replicon assay against NS5A sequence of genotype 3a, intergenotypic chimera; assay type: cell-based; conditions: Hepatitis C virus, read-out: Genotype 3a
Method: (§1) Assay 4: Replicon Assays Against NS5A Sequences of Other Genotypes
(§2) Potencies of test compounds against NS5A sequences of other genotypes were determined by creating intergenotypic chimeras. The entire NS5A gene from genotypes 2a, 2b, 3a, 4a, 5a, and 6a, or the nucleotide sequence encoding amino acids 11-118 of NS5A, was subcloned into a genotype 1b replicon. For genotype 2a, intergenotypic chimeras with both the JFH and the J6 strain were created. […] Since the majority of genotype 2a sequences in public databases contain the L31M sequence variant, the use of the J6 genotype 2a sequence may better reflect the antiviral potency of NS5A inhibitors.
(§3) These chimeric replicon plasmids were then linearized and in vitro transcribed to RNA. The RNA was used to transiently or stably transfect Huh-LUNET cells by electroporation, and the potencies of test compounds against the chimeras were determined as previously described.

[2] = tested on: HCV genotype 1a Y93H resistant mutant replicon; assay: Replicon assay against resistant mutant 1a Y93H (transient transfection); assay type: cell-based; conditions: Hepatitis C virus, read-out: Genotype 1a Y93H
Method: Assay 3: Replicon Assays Against Resistant Mutants […]
Potencies of test compounds against additional mutations of interest were determined using transient transfection assays. These mutants included genotype 1a Y93C, Y93H, M28T, Q30E, Q30K, L31M, and Y93N. The mutation was first introduced into the parental plasmid by site-directed mutagenesis. The replicon plasmid was then linearized and in vitro transcribed to RNA. The RNA was used to transiently transfect Huh-LUNET cells (obtained from ReBLikon GmbH, Schriesheim, Germany) by electroporation, and the potencies of test compounds against the mutants were determined as previously described.

HCV genotype 1b replicon = HCV genotype 1b replicon assay (Renilla luciferase readout); assay type: cell-based, hepatitis C virus; conditions: Hepatitis C virus, read-out: Genotype 1b
In short: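 Reported as pEC50 derived from a 4-parameter fit of Renilla luciferase activity against concentration. Replicon cells (APC144, Huh7 background) were exposed to compound for 48 h in G418-free medium with final 0.5% DMSO, after seeding at 10,000 cells/well and 4 h adherence.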

[3] = tested on: HCV genotype 2a (J6 strain) NS5A chimeric replicon; assay: Replicon assay against NS5A sequence of genotype 2a (J6 strain), intergenotypic chimera; assay type: cell-based; conditions: Hepatitis C virus, read-out: Genotype 2a (J6)
Method: as §1, §2, §3

| Compound | EC50 (HCV genotype 1a replicon) [nM] | EC50 [1] [nM] | EC50 [2] [nM] | EC50 (HCV genotype 1b replicon) [nM] | EC50 [3] [nM] |
| --- | --- | --- | --- | --- | --- |
| COC(=O)N[C@H](C(=O)N1C[C@@H](OC)C[C@H]1c1nc(-c2ccc(-c3cc(Cl)c(NC(=O)c4ccc(N5CCN(C(=O)C(C)(C)C)C[C@H]5C)nc4)cc3OC(F)(F)F)cc2)c[nH]1)C1CCOCC1 [Example 15] | < 0.1 | 0.1 to 1 | 1 to 10 | < 0.1 | 0.1 to 1 |
| COC(=O)N[C@H](C(=O)N1C[C@@H](OC)C[C@H]1c1nc(-c2ccc(-c3cc(Cl)c(NC(=O)c4ccc(N5CCN(C(=O)C(C)(C)CO)C[C@H]5C)nc4)cc3OC(F)(F)F)cc2)c[nH]1)C1CCOCC1 [Example 16, [(S)-2-((2S,4S)-2-{4-[5′-Chloro-4′-({6-[(R)-4-(3-hydroxy-2,2-dimethyl-propionyl)-2-methyl-piperazin-1-yl]-pyridine-3-carbonyl}-amino)-2′-trifluoromethoxy-biphenyl-4-yl]-1H-imidazol-2-yl}-4-methoxy-pyrrolidin-1-yl)-2-oxo-1-(tetrahydro-pyran-4-yl)-ethyl]-carbamic acid methyl ester] | < 0.1 | 1 to 10 | 1 to 10 | < 0.1 | 1 to 10 |
| COC(=O)N[C@H](C(=O)N1C[C@@H](C(N)=O)C[C@H]1c1nc(-c2ccc(-c3cc(Cl)c(NC(=O)c4ccc(N5CCN(C(=O)C(C)(C)C)C[C@H]5C)nc4)cc3OC(F)(F)F)cc2)c[nH]1)C(C)C [Example 18, [(S)-1-((2S,4S)-4-Carbamoyl-2-{4-[5′-chloro-4′-({6-[(R)-4-(2,2-dimethyl-propionyl)-2-methyl-piperazin-1-yl]-pyridine-3-carbonyl}-amino)-2′-trifluoromethoxy-biphenyl-4-yl]-1H-imidazol-2-yl}-pyrrolidine-1-carbonyl)-2-methyl-propyl]-carbamic acid methyl ester] | < 0.1 | 1 to 10 | 1 to 10 | < 0.1 | 0.1 to 1 |
| COC(=O)N[C@H](C(=O)N1C[C@@H](C)C[C@H]1c1nc(-c2ccc(-c3cc(Cl)c(C(=O)Nc4ccc(N5CCN(C(=O)C(C)(C)C)C[C@H]5C)nc4)cc3OC(F)(F)F)cc2)c[nH]1)C1CCOCC1 [Example 19, Methyl ((S)-2-((2S,4S)-2-(4-(5′-chloro-4′-((6-((R)-2-methyl-4-pivaloylpiperazin-1-yl)pyridin-3-yl)carbamoyl)-2′-(trifluoromethoxy)-[1,1′-biphenyl]-4-yl)-1H-imidazol-2-yl)-4-methylpyrrolidin-1-yl)-2-oxo-1-(tetrahydro-2H-pyran-4-yl)ethyl)carbamate] | < 0.1 | 1 to 10 | 10 to 1000 | < 0.1 | 1 to 10 |
| COC(=O)N[C@H](C(=O)N1C[C@@H](C)C[C@H]1c1nc(-c2ccc(-c3c(Cl)cc(C(=O)Nc4ccc(N5CCN(C(=O)C(C)(C)C)C[C@H]5C)nc4)cc3OC(F)(F)F)cc2)c[nH]1)C1CCOCC1 [Example 20, Methyl ((S)-2-((2S,4S)-2-(4-(2′-chloro-4′-((6-((R)-2-methyl-4-pivaloylpiperazin-1-yl)pyridin-3-yl)carbamoyl)-6′-(trifluoromethoxy)-[1,1′-biphenyl]-4-yl)-1H-imidazol-2-yl)-4-methylpyrrolidin-1-yl)-2-oxo-1-(tetrahydro-2H-pyran-4-yl)ethyl)carbamate] | < 0.1 | 1 to 10 | 1 to 10 | < 0.1 | 1 to 10 |
| COC(=O)N[C@H](C(=O)N1C[C@@H](C)C[C@H]1c1nc(-c2ccc(-c3ccc(C(=O)Nc4ccc(N5CCN(C(=O)C(C)(C)C)C[C@H]5C)nc4)c(F)c3OC(F)(F)F)cc2)c[nH]1)C1CCOCC1 [Example 21, Methyl ((S)-2-((2S,4S)-2-(4-(3′-fluoro-4′-((6-((R)-2-methyl-4-pivaloyl-piperazin-1-yl)pyridin-3-yl)carbamoyl)-2′-(trifluoromethoxy)-[1,1′-biphenyl]-4-yl)-1H-imidazol-2-yl)-4-methylpyrrolidin-1-yl)-2-oxo-1-(tetrahydro-2H-pyran-4-yl)ethyl)carbamate] | < 0.1 | 0.1 to 1 | 0.1 to 1 | < 0.1 | 0.1 to 1 |
